Data on three molecules can be found in article PMC2719696, “Kinetics and Cellular Site of Glycolipid Loading Control the Outcome of Natural Killer T Cell Activation” (Immunity, 2009).

For this series, the target named is T1, mCD1d (Mus musculus, UniProt P11609).
T1 construct: host or cells: JAWS II (C57BL/6.Trp53-/- derived dendritic cell line)
T1 sequence (P11609 22-336): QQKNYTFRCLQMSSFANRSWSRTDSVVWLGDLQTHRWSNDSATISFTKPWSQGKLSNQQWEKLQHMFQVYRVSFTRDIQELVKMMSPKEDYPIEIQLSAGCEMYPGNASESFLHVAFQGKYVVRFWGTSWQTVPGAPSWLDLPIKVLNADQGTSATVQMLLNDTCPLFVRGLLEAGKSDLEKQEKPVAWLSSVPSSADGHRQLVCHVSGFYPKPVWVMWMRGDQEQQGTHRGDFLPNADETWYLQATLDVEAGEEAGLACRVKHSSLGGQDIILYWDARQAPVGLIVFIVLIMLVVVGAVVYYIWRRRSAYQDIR
T1 sequence (P01887 21-119 partner): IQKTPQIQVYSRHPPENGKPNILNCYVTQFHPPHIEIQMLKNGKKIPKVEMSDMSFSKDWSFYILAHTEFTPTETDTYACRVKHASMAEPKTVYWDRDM
The series is described as follows: Confocal microscopy of L363 staining in JAWS II cells (surface and permeabilized). The class given is cell-based. The settings on record: for L363 surface staining of intact cells (confocal): 100 nM glycolipid, 1, 4 or 16 hr; for site of L363 staining in permeabilized cells: 1 hr incubation, co-stained for LAMP-1. As for the experimental part:
To visualize the kinetics and sites of mCD1d loading by αGalCer analogs in live cells, we analyzed intact JAWS II cells for surface staining with mAb L363 after 1, 4, or 16 hr of incubation with αGalCer-C26:0 or with either of two Th2 cell-type cytokine-biasing analogs (αGalCer-C20:2 or -C10:0) (Figure 4A). Strong staining of the plasma membrane was seen after 16 hr of incubation in all cases. […] To image earlier steps in glycolipid loading, we permeabilized and fixed cells prior to staining with L363 and with an antibody to the late endosomal and lysosomal marker LAMP-1 (Figure 4A). […] At 4 hr, these complexes began to colocalize with LAMP-1, and only at 16 hr could clear surface staining be seen along with the persistent intracellular staining in LAMP-1^+ compartments (Figure 4A).
Figure 4 Cell Surface versus Intracellular Loading of mCD1d with Different αGalCer Analogs (A) On the left, surface accumulation of CD1d-αGalCer complexes was studied with JAWS II cells harvested after incubation with the indicated glycolipids for 1, 4, or 16 hr and then stained without permeabilization with mAb L363 (red). Cells were then fixed, stained with DAPI for nuclei visualization (blue), and analyzed by confocal microscopy. On the right, the intracellular formation and trafficking of CD1d-αGalCer complexes were analyzed by treatment of JAWS II cells with αGalCer analogs for 1, 4, and 16 hr followed by fixation and permeabilization. The cells were stained for CD1d-αGalCer complexes (L363, red), late endosomes and lysosomes (anti-LAMP-1, green), and nuclei (DAPI, blue). Results are representative of three separate experiments. The scale bar represents 10 μm. (B) Murine iNKT cell hybridoma cells (DN3A4.1-2) were stimulated with αGalCer analogs. As APCs for these stimulations, we used A20 cells transfected with wild-type CD1d (CD1d.WT) or cytoplasmic-tail-deleted CD1d (CD1d.TD). Supernatant concentrations of IL-2 release were determined after 12 hr. IL-2 production over a range of concentrations is shown for αGalCer-C26:0 and two analogs that produce a Th2 cell-type cytokine bias (αGalCer-C20:2 and -PGB1).
JAWS II cells were incubated at 37°C with 100 nM glycolipids for various times as indicated. For surface staining, live cells were harvested and washed extensively with PBS, resuspended in PBS + 1% BSA + 0.1% NaN3, stained on ice with 10 μg/ml Alexa Fluor 647-conjugated mAb L363 for 30 min, and lastly washed extensively and fixed with 4% paraformaldehyde. Cells were washed with PBS and settled onto poly-L-lysine-coated coverslips for 30 min and mounted with ProLong Gold with DAPI mounting medium (Invitrogen). For intracellular staining, JAWS II cells grown on glass coverslips were fixed in 4% paraformaldehyde, permeabilized with 0.05% Triton X-100 for 5 min, and stained with 10 μg/ml Alexa Fluor 647-conjugated L363 and FITC-conjugated anti-LAMP-1. Coverslips were washed and mounted. Confocal images were obtained with a Leica SP2 AOBS confocal microscope (Leica Microsystems). For colocalization of αGalCer/mCD1d complexes with ganglioside GM1-enriched plasma membrane lipid rafts, JAWS II cells were incubated for 18 hr at 37°C in complete medium without or with 100 nM of glycolipids. […] We performed quantitative analysis of colocalization by selecting 20–25 random cells in each group and determining a Pearson correlation coefficient for the distribution of pixel densities for K253 or L363 fluorescence compared to cholera toxin B-specific fluorescence. […]

As to `CCCCCCCCCCCCCCC(O)C(O)C(COC1OC(CO)C(O)C(O)C1O)NC(=O)CCCCCCCCC` (centres unmarked) [αGalCer-C10:0], the “L363 surface staining of intact cells (confocal)” value is listed as “showed L363 staining at earlier time points” and the “site of L363 staining in permeabilized cells” value (shortened to “site of L363 staining”) is “L363 staining was observed at the plasma membrane”. As to `CCCCCC=CCC=CCCCCCCCCCC(=O)NC(COC1OC(CO)C(O)C(O)C1O)C(O)C(O)CCCCCCCCCCCCCC` (centres unmarked) [αGalCer-C20:2], the “L363 surface staining of intact cells (confocal)” value is reported as “showed L363 staining at earlier time points” and the “site of L363 staining” value was “L363 staining was observed at the plasma membrane”. As to `CCCCCCCCCCCCCCCCCCCCCCCCCC(=O)NC(COC1OC(CO)C(O)C(O)C1O)C(O)C(O)CCCCCCCCCCCCCC` (centres unmarked) [αGalCer-C26:0, reference compound], the “site of L363 staining” value is on record as “observed only in a punctate intracellular distribution”.
